In patent US11066396B2 (priority 2016, dated 2021):

What was measured:
[1] = biological target: HDAC1 (Homo sapiens (Human), UniProt Q13547); settings: read-out: HDAC1 IC50
[2] = biological target: HDAC8 (Homo sapiens (Human), UniProt Q9BY41); settings: read-out: HDAC8 IC50
Chain of HDAC8 (Q9BY41 whole entry): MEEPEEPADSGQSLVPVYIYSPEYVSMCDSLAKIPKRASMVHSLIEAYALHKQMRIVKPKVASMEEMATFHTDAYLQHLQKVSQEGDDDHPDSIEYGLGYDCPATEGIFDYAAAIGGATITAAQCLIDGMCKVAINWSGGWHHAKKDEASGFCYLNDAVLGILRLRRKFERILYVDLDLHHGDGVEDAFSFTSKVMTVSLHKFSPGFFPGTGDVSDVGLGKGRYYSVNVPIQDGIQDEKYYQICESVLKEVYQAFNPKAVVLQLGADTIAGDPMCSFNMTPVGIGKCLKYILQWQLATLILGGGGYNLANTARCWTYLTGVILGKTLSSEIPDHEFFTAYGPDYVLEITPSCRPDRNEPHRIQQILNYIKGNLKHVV

Chain of HDAC1 (Q13547 whole entry): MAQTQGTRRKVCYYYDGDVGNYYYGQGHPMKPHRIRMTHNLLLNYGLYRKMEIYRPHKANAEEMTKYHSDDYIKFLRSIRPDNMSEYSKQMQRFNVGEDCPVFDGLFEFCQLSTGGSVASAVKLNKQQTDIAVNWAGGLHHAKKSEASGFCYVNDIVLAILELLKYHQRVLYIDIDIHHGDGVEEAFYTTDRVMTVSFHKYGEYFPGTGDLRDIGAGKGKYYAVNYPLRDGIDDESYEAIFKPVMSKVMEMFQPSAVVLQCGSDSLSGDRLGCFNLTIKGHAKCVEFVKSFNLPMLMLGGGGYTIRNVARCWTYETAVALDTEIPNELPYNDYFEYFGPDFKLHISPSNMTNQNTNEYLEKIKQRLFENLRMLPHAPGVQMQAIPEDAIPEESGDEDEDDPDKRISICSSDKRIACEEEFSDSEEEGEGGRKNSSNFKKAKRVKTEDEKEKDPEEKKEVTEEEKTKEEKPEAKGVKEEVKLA

Q: For `O=C(C1CCOCC1)N(Cc1ccc(-c2noc(C(F)(F)F)n2)cc1)c1cccc(C(F)(F)F)c1` [Example 85, N-(4-(5-(trifluoromethyl)-1,2,4-oxadiazol-3-yl)benzyl)-N-(3-(trifluoromethyl)phenyl)tetrahydro-2H-pyran-4-carboxamide], which IC50 [1] is on record?
A: 1200 nM

Q: What about the IC50 [2] of the same molecule?
A: 2300 nM

Q: With `COCCn1nc(C(=O)N(Cc2ccc(-c3noc(C(F)(F)F)n3)cc2)c2cccc(C(F)(F)F)c2)ccc1=O` [Example 86, 1-(2-methoxyethyl)-6-oxo-N-(4-(5-(trifluoromethyl)-1,2,4-oxadiazol-3-yl)benzyl)-N-(3-(trifluoromethyl)phenyl)-1,6-dihydropyridazine-3-carboxamide] as the molecule, how does the IC50 [1] read?
A: 1200 nM

Q: What about the IC50 [2] of the same molecule?
A: 3300 nM

Q: How did the IC50 [1] turn out when `Cn1nc(C(=O)N(Cc2ccc(-c3noc(C(F)(F)F)n3)cc2)c2cccc(C(F)(F)F)c2)ccc1=O` [Example 88, 1-methyl-6-oxo-N-(4-(5-(trifluoromethyl)-1,2,4-oxadiazol-3-yl)benzyl)-N-(3-(trifluoromethyl)phenyl)-1,6-dihydropyridazine-3-carboxamide] was run?
A: 940 nM

Q: What about the IC50 [2] of the same molecule?
A: 3000 nM

Q: For `O=C(CCn1cncn1)N(Cc1ccc(-c2noc(C(F)(F)F)n2)cc1)c1cccc(C(F)(F)F)c1` [Example 89, 3-(1H-1,2,4-triazol-1-yl)-N-(4-(5-(trifluoromethyl)-1,2,4-oxadiazol-3-yl)benzyl)-N-(3-(trifluoromethyl)phenyl)propanamide], which IC50 [1] is on record?
A: 1100 nM

Q: What about the IC50 [2] of the same molecule?
A: 2000 nM

Q: `CC(C)C(=O)N1CCC(C(=O)N(Cc2ccc(-c3noc(C(F)(F)F)n3)cc2)c2cccc(C(F)(F)F)c2)CC1` [Example 90, 1-isobutyryl-N-(4-(5-(trifluoromethyl)-1,2,4-oxadiazol-3-yl)benzyl)-N-(3-(trifluoromethyl)phenyl)piperidine-4-carboxamide] was tested. Which IC50 [1] did it give?
A: 1400 nM

Q: And the IC50 [2]?
A: 2500 nM

Q: With `CC(C)(C)OC(=O)N(Cc1ccc(-c2noc(C(F)(F)F)n2)cn1)c1cccc(F)c1` [Example 91, tert-butyl (3-fluorophenyl)((5-(5-(trifluoromethyl)-1,2,4-oxadiazol-3-yl)pyridin-2-yl)methyl)carbamate] as the molecule, how does the IC50 [1] read?
A: 1300 nM

Q: What about the IC50 [2] of the same molecule?
A: 19000 nM

Q: Which IC50 [1] does the source give for `CN1CCN(CC(=O)N(Cc2ccc(-c3noc(C(F)(F)F)n3)cc2)c2cccc(C(F)(F)F)c2)CC1` [Example 93, 2-(4-methylpiperazin-1-yl)-N-(4-(5-(trifluoromethyl)-1,2,4-oxadiazol-3-yl)benzyl)-N-(3-(trifluoromethyl)phenyl)acetamide] here?
A: 990 nM

Q: And the IC50 [2]?
A: 2200 nM

Q: With `O=C(Cc1cnccn1)N(Cc1ccc(-c2noc(C(F)(F)F)n2)cc1)c1cccc(C(F)(F)F)c1` [Example 94, 2-(pyrazin-2-yl)-N-(4-(5-(trifluoromethyl)-1,2,4-oxadiazol-3-yl)benzyl)-N-(3-(trifluoromethyl)phenyl)acetamide] as the molecule, how does the IC50 [1] read?
A: 1400 nM

Q: What about the IC50 [2] of the same molecule?
A: 2300 nM

Q: For `Cn1ccc(CN(Cc2ccc(-c3noc(C(F)(F)F)n3)cc2)c2cccc(C(F)(F)F)c2)n1` [Example 96, N-((1-methyl-1H-pyrazol-3-yl)methyl)-3-(trifluoromethyl)-N-(4-(5-(trifluoromethyl)-1,2,4-oxadiazol-3-yl)benzyl)aniline], which IC50 [1] is on record?
A: 2400 nM

Q: What about the IC50 [2] of the same molecule?
A: 30000 nM

Q: Which results are given for `O=C(Cn1cnc2ccccc21)N(Cc1ccc(-c2noc(C(F)(F)F)n2)cc1)c1cccc(C(F)(F)F)c1` [Example 98, 2-(1H-benzo[d]imidazol-1-yl)-N-(4-(5-(trifluoromethyl)-1,2,4-oxadiazol-3-yl)benzyl)-N-(3-(trifluoromethyl)phenyl)acetamide]?
A: IC50 [1]: 4200 nM; IC50 [2]: 2300 nM

Q: Which results are given for `Cc1nc2ccc(F)cc2n1Cc1ccc(-c2noc(C(F)(F)F)n2)cc1F` [Example 99, 3-(3-fluoro-4-((6-fluoro-2-methyl-1H-benzo[d]imidazol-1-yl)methyl)phenyl)-5-(trifluoromethyl)-1,2,4-oxadiazole]?
A: IC50 [1]: 1900 nM; IC50 [2]: 5900 nM
